Results on 8 molecules are retold here after patent US20110100079A1, “METHOD FOR IMPARTING STRESS TOLERANCE TO PLANT” (priority 2007, published 2011).

This assay concerns potato. Put plainly: Example 9 drying stress test (potato), soil culture. Type of assay: in vivo. The following applies: 23° C., 100 ppm, 2 weeks; for Fresh weight, relative value (untreated plot = 100), Test 1 / Fresh weight, relative value (untreated plot = 100), Test 4 / Fresh weight, relative value (untreated plot = 100), Test 2 / Fresh weight, relative value (untreated plot = 100), Test 3: potato soil culture; for Fresh weight, relative value (untreated plot = 100), Test 1: EC 1, pF 2.8, two-leaf stage; for Fresh weight, relative value (untreated plot = 100), Test 4: EC 1, pF 3.5, five-leaf stage; for Fresh weight, relative value (untreated plot = 100), Test 2: EC 1, pF 3.5, two-leaf stage; for Fresh weight, relative value (untreated plot = 100), Test 3: EC 1, pF 4.1, two-leaf stage; for Fresh weight, relative value (untreated plot = 100), Comparison 1: stress-free: potato soil culture, EC 1, pF 1.7, two-leaf stage. On the procedure: The environmental conditions in a climatic chamber were controlled so as to have a temperature of 23° C., an illuminance by a fluorescent light of 5000 Lux, and a daily light-dark cycle of a 16-hour light period and an 8-hour dark period. Potatoes as prepared above were transplanted in size-5 (15 cm) pots. During the test period, the pF value was controlled by adding a suitable amount of tap water once a day so as to attain a specific drying stress value. A treatment solution containing a compound of Table 5 in a specific concentration (the remainder was water) was prepared and sprayed onto the leaves or applied to the underground portions. […] A comparative example was constructed to reflect the drying stress-free optimum cultivation conditions to investigate the plant energizing ability. […] Moreover, when the products of the present invention and the comparative products were compared, the stress tolerance imparting ability of the products of the present invention was higher in respective drying stress conditions.

On to “POE (20) sorbitan monolauric acid ester [Product of present invention 12]”, for which, under “leaf”, the “Fresh weight, relative value (untreated plot = 100), Test 1” value (“Fresh weight, relative value … Test 1” below) turned out to be 128; the “Fresh weight, relative value (untreated plot = 100), Test 4” value (shortened to “Fresh weight, relative value … Test 4”) stood at 145; the “Fresh weight, relative value (untreated plot = 100), Test 2” value (“Fresh weight, relative value … Test 2” for short) is given as 143; the “Fresh weight, relative value (untreated plot = 100), Test 3” value (“Fresh weight, relative value … Test 3” below) is 129. For the setting “leaf”, the “Fresh weight, relative value (untreated plot = 100), Comparison 1” value (shortened to “Fresh weight, relative value … Comparison 1”) was found to be 101.
Regarding “Sucrose fatty acid ester (C18, HLB = 15) [Product of present invention 20]”, under “leaf”, the “Fresh weight, relative value … Test 1” value is given as 118; the “Fresh weight, relative value … Test 4” value stood at 128; the “Fresh weight, relative value … Test 2” value stood at 135; the “Fresh weight, relative value … Test 3” value is 118. The “Fresh weight, relative value … Comparison 1” value (leaf) amounted to 102.
In the case of `C[N+](C)(C)CC(=O)[O-]` [Comparative product 3, Glycine betaine, reference compound], for the setting “leaf”, the “Fresh weight, relative value … Test 1” value was determined as 102; the “Fresh weight, relative value … Test 4” value was 101; the “Fresh weight, relative value … Test 2” value was determined as 102; the “Fresh weight, relative value … Test 3” value was found to be 102. Where the note is “leaf”, the “Fresh weight, relative value … Comparison 1” value stood at 102.
For the molecule `OC[C@H]1O[C@H](OC[C@H]2O[C@H](O[C@]3(CO)O[C@H](CO)[C@@H](O)[C@@H]3O)[C@H](O)[C@@H](O)[C@@H]2O)[C@H](O)[C@@H](O)[C@H]1O` [Comparative product 4, Raffinose, reference compound], for the setting “leaf”, the “Fresh weight, relative value … Test 1” value is 103; the “Fresh weight, relative value … Test 4” value was 101; the “Fresh weight, relative value … Test 2” value worked out at 103; the “Fresh weight, relative value … Test 3” value came to 103. Besides, the “Fresh weight, relative value … Comparison 1” value (leaf) turned out to be 102.
Take “Alkyl (C10) polyglycoside [Product of present invention 15]”: under “leaf”, the “Fresh weight, relative value … Test 1” value came to 121; the “Fresh weight, relative value … Test 4” value came to 134; the “Fresh weight, relative value … Test 2” value turned out to be 142; the “Fresh weight, relative value … Test 3” value is reported as 121. The “Fresh weight, relative value … Comparison 1” value (leaf) is 102.
Take “Alkyl (C12-14) polyglycoside [Product of present invention 16]”: under “leaf”, the “Fresh weight, relative value … Test 1” value came out at 120; the “Fresh weight, relative value … Test 4” value turned out to be 132; the “Fresh weight, relative value … Test 2” value was found to be 140; the “Fresh weight, relative value … Test 3” value is 120. Also, where the note is “leaf”, the “Fresh weight, relative value … Comparison 1” value came to 101.
In the case of “POE (20) sorbitan monooleic acid ester [Product of present invention 1]”, under “underground portion”, the “Fresh weight, relative value … Test 1” value came to 133; the “Fresh weight, relative value … Test 4” value came out at 156; the “Fresh weight, relative value … Test 2” value was 185; the “Fresh weight, relative value … Test 3” value amounted to 140. Also, the “Fresh weight, relative value … Comparison 1” value (underground portion) came to 102.
For `O=C(O)[C@@H]1CCCN1` [Comparative product 2, Proline, reference compound], for the setting “leaf”, the “Fresh weight, relative value … Test 1” value came out at 102; the “Fresh weight, relative value … Test 4” value stood at 101; the “Fresh weight, relative value … Test 2” value is on record as 102; the “Fresh weight, relative value … Test 3” value is reported as 101. Further, for the setting “leaf”, the “Fresh weight, relative value … Comparison 1” value is on record as 101. Where the note is “underground portion”, the “Fresh weight, relative value … Test 1” value worked out at 102; the “Fresh weight, relative value … Test 4” value was found to be 100; the “Fresh weight, relative value … Test 2” value was determined as 102; the “Fresh weight, relative value … Test 3” value was found to be 101. The “Fresh weight, relative value … Comparison 1” value (underground portion) came out at 102.
